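Step 1: Grow cells in 96-well plates. Step 2: Expose to compound for 48 hours at 5 concentrations. Step 3: Interpolate endpoints linearly; if unreached, use highest concentration. GI50: concentration for 50% inhibition of growth.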 The source made the active and inactive calls. Cut-off read from the data, not from the text of the source: active = GI50 up to about 1.1 µM and inactive = higher.
Experiments:
Experiment in all cases: inhibition of tumour cell growth, NCI panel, 48 h
T47D = system: T47D
HCC 2998 = system: HCC 2998
HOP-62 = system: HOP-62
IGROV-1 = system: IGROV-1
DU-145 = system: DU-145
NCI/ADR-RES = system: NCI/ADR-RES
SW-620 = system: SW-620
SK-MEL-2 = system: SK-MEL-2
SNB-19 = system: SNB-19
SK-MEL-28 = system: SK-MEL-28
UO-31 = system: UO-31
OVCAR-4 = system: OVCAR-4
HT-29 = system: HT-29
OVCAR-8 = system: OVCAR-8
OVCAR-3 = system: OVCAR-3
OVCAR-5 = system: OVCAR-5
SN12C = system: SN12C
MDA-MB-231 = system: MDA-MB-231
SF-268 = system: SF-268
NCI-H226 = system: NCI-H226

Measured: GI50

CN(C)c1ccc(/C=N\NC(=O)c2ccccc2Nc2ccccc2C(=O)N/N=C/c2ccc(N(C)C)cc2)cc1
inactive: T47D > 100 µM | HCC 2998 > 100 µM | HOP-62 > 100 µM | IGROV-1 > 100 µM | DU-145 > 100 µM | NCI/ADR-RES > 100 µM | SW-620 > 100 µM | SK-MEL-2 > 100 µM | SNB-19 > 100 µM | SK-MEL-28 90.4 µM | UO-31 > 100 µM | OVCAR-4 > 100 µM | HT-29 > 100 µM | OVCAR-8 > 100 µM | OVCAR-3 > 100 µM | OVCAR-5 28.5 µM | SN12C > 100 µM | MDA-MB-231 23.3 µM | SF-268 > 100 µM | NCI-H226 > 100 µM

COc1ccc2cc(C(=O)NCCc3ccccc3)ccc2c1OC
inactive: T47D 26.5 µM | HCC 2998 34.8 µM | HOP-62 32.1 µM | IGROV-1 > 100 µM | DU-145 > 100 µM | NCI/ADR-RES 84.3 µM | SW-620 > 100 µM | SK-MEL-2 71.9 µM | SNB-19 68.1 µM | SK-MEL-28 > 100 µM | OVCAR-4 > 100 µM | HT-29 67.6 µM | OVCAR-8 79.6 µM | OVCAR-3 46.1 µM | OVCAR-5 > 100 µM | SN12C > 100 µM | MDA-MB-231 33.6 µM | SF-268 54.3 µM | NCI-H226 63 µM

COc1ccc(CNc2ccn(C3OC(CO)C(O)C3O)c(=O)n2)cc1 (stereo unspecified)
inactive: T47D 25.4 µM | HCC 2998 48.8 µM | HOP-62 > 100 µM | IGROV-1 > 100 µM | DU-145 > 100 µM | NCI/ADR-RES > 100 µM | SW-620 > 100 µM | SK-MEL-2 > 100 µM | SNB-19 > 100 µM | SK-MEL-28 > 100 µM | UO-31 81.7 µM | OVCAR-4 37.2 µM | HT-29 46.3 µM | OVCAR-8 > 100 µM | OVCAR-3 > 100 µM | OVCAR-5 > 100 µM | SN12C > 100 µM | MDA-MB-231 > 100 µM | SF-268 > 100 µM | NCI-H226 > 100 µM

CN1CCCCC1CCN1CCCCC1 (stereo unspecified)
inactive: T47D > 100 µM | HCC 2998 > 100 µM | HOP-62 > 100 µM | IGROV-1 > 100 µM | DU-145 > 100 µM | NCI/ADR-RES > 100 µM | SW-620 > 100 µM | SK-MEL-2 > 100 µM | SNB-19 > 100 µM | SK-MEL-28 > 100 µM | UO-31 > 100 µM | OVCAR-4 > 100 µM | HT-29 > 100 µM | OVCAR-8 > 100 µM | OVCAR-3 > 100 µM | OVCAR-5 > 100 µM | SN12C > 100 µM | MDA-MB-231 > 100 µM | SF-268 > 100 µM | NCI-H226 > 100 µM

CC(Cl)CC(=O)OCC1CCCN2CCCCC12 (stereo unspecified)
inactive: T47D > 100 µM | HCC 2998 > 100 µM | HOP-62 > 100 µM | DU-145 > 100 µM | NCI/ADR-RES > 100 µM | SW-620 > 100 µM | SK-MEL-2 > 100 µM | SNB-19 > 100 µM | SK-MEL-28 > 100 µM | UO-31 > 100 µM | OVCAR-4 > 100 µM | HT-29 > 100 µM | OVCAR-8 > 100 µM | OVCAR-3 > 100 µM | OVCAR-5 > 100 µM | SN12C > 100 µM | MDA-MB-231 > 100 µM | SF-268 > 100 µM | NCI-H226 > 100 µM

C#CCOC(=O)c1ccc(OC(C)=O)cc1
inactive: T47D > 100 µM | HCC 2998 > 100 µM | HOP-62 > 100 µM | IGROV-1 > 100 µM | DU-145 > 100 µM | NCI/ADR-RES > 100 µM | SW-620 > 100 µM | SK-MEL-2 > 100 µM | SNB-19 > 100 µM | UO-31 > 100 µM | OVCAR-4 > 100 µM | OVCAR-8 > 100 µM | OVCAR-3 > 100 µM | OVCAR-5 > 100 µM | SN12C > 100 µM | MDA-MB-231 > 100 µM | SF-268 > 100 µM | NCI-H226 > 100 µM

Source: ChEMBL document CHEMBL1201862, “PubChem BioAssay data set” (2004)
